The term Ki denotes the dissociation constant of the complex between target and ligand, obtained from inhibition or displacement. High values mean weaker binding, low ones tighter binding.

The text below walks through data of patent publication US10213433B2 (AbbVie Inc., priority 2010, dated 2019).

The structures appear in SMILES notation.

Chain of Bcl-2 protein (P10415 whole entry): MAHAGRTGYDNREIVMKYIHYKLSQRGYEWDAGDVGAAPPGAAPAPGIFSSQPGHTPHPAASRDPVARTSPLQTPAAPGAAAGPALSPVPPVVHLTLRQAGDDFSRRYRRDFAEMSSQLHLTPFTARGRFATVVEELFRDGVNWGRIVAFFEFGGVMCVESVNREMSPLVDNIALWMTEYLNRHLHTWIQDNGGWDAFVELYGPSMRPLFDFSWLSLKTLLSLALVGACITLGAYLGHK

The test addresses Bcl-2 protein (Homo sapiens (Human), UniProt P10415). In words: Bcl-2 binding TR-FRET (Time-Resolved Fluorescence-Resonance-Energy-Transfer) assay. Particulars: inhibition constant for binding to Bcl-2 protein. The source says: The smaller the Ki value, the greater is the binding affinity.
(Time-resolved FRET reads energy transfer from a long-lived donor to a nearby acceptor.)
As to `CC1(C)CCC(CN2CCN(c3ccc(C(=O)NS(=O)(=O)c4ccc(NC5CCS(=O)(=O)CC5)c([N+](=O)[O-])c4)c(Oc4cnc5[nH]ccc5c4)c3)CC2)=C(c2ccc(Cl)cc2)C1` [Compound 81, 4-(4-{[2-(4-chlorophenyl)-4,4-dimethylcyclohex-1-en-1-yl]methyl}piperazin-1-yl)-N-({4-[(1,1-dioxidotetrahydro-2H-thiopyran-4-yl)amino]-3-nitrophenyl}sulfonyl)-2-(1H-pyrrolo[2,3-b]pyridin-5-yloxy)benzamide], the Ki was below 10 pM.

As to `CC1(C)CCC(CN2CCN(c3ccc(C(=O)NS(=O)(=O)c4ccc(OCC5(F)CCN(C6CCOCC6)CC5)c([N+](=O)[O-])c4)c(Oc4cnc5[nH]ccc5c4)c3)CC2)=C(c2ccc(Cl)cc2)C1` [Compound 192, 4-(4-{[2-(4-chlorophenyl)-4,4-dimethylcyclohex-1-en-1-yl]methyl}piperazin-1-yl)-N-({4-[(4-fluoro-1-tetrahydro-2H-pyran-4-ylpiperidin-4-yl)methoxy]-3-nitrophenyl}sulfonyl)-2-(1H-pyrrolo[2,3-b]pyridin-5-yloxy)benzamide], the inhibitory constant (Ki) is below 10 pM.

On to `CC1(C)CCC(CN2CCN(c3ccc(C(=O)NS(=O)(=O)c4ccc(NC[C@@H]5CCN(C6COC6)C5)c([N+](=O)[O-])c4)c(Oc4cnc5[nH]ccc5c4)c3)CC2)=C(c2ccc(Cl)cc2)C1` [Compound 209, 4-(4-{[2-(4-chlorophenyl)-4,4-dimethylcyclohex-1-en-1-yl]methyl}piperazin-1-yl)-N-{[3-nitro-4-({[(3S)-1-oxetan-3-ylpyrrolidin-3-yl]methyl}amino)phenyl]sulfonyl}-2-(1H-pyrrolo[2,3-b]pyridin-5-yloxy)benzamide], for which the Ki was below 10 pM.

As for `CN1CCC(COc2ccc(S(=O)(=O)NC(=O)c3ccc(N4CCN(CC5=C(c6ccc(Cl)cc6)CC(C)(C)CC5)CC4)cc3Oc3cnc4[nH]ccc4c3)cc2[N+](=O)[O-])CC1` [Compound 48, 4-(4-{[2-(4-chlorophenyl)-4,4-dimethylcyclohex-1-en-1-yl]methyl}piperazin-1-yl)-N-({4-[(1-methylpiperidin-4-yl)methoxy]-3-nitrophenyl}sulfonyl)-2-(1H-pyrrolo[2,3-b]pyridin-5-yloxy)benzamide], the Ki was below 10 pM.

Turning to `COc1ccc(CNc2ccc(S(=O)(=O)NC(=O)c3ccc(N4CCN(CC5=C(c6ccc(Cl)cc6)CC(C)(C)CC5)CC4)cc3Oc3cnc4[nH]ccc4c3)cc2[N+](=O)[O-])cc1` [Compound 174, 4-(4-{[2-(4-chlorophenyl)-4,4-dimethylcyclohex-1-en-1-yl]methyl}piperazin-1-yl)-N-({4-[(4-methoxybenzyl)amino]-3-nitrophenyl}sulfonyl)-2-(1H-pyrrolo[2,3-b]pyridin-5-yloxy)benzamide], the Ki is below 10 pM.

Regarding `CC(C)(CO)CNc1ccc(S(=O)(=O)NC(=O)c2ccc(N3CCN(CC4=C(c5ccc(Cl)cc5)CC(C)(C)CC4)CC3)cc2Oc2cnc3[nH]ccc3c2)cc1[N+](=O)[O-]` [Compound 146, 4-(4-{[2-(4-chlorophenyl)-4,4-dimethylcyclohex-1-en-1-yl]methyl}piperazin-1-yl)-N-({4-[(3-hydroxy-2,2-dimethylpropyl)amino]-3-nitrophenyl}sulfonyl)-2-(1H-pyrrolo[2,3-b]pyridin-5-yloxy)benzamide], the Ki is below 10 pM.

For `CC1(C)CCC(CN2CCN(c3ccc(C(=O)NS(=O)(=O)c4ccc(NCC5CNCCO5)c([N+](=O)[O-])c4)c(Oc4cnc5[nH]ccc5c4)c3)CC2)=C(c2ccc(Cl)cc2)C1` (stereo not drawn) [Compound 113, 4-(4-{[2-(4-chlorophenyl)-4,4-dimethylcyclohex-1-en-1-yl]methyl}piperazin-1-yl)-N-({4-[(morpholin-2-ylmethyl)amino]-3-nitrophenyl}sulfonyl)-2-(1H-pyrrolo[2,3-b]pyridin-5-yloxy)benzamide], the Ki is below 10 pM.

Turning to `CN1CC(Nc2ccc(S(=O)(=O)NC(=O)c3ccc(N4CCN(CC5=C(c6ccc(Cl)cc6)CC(C)(C)CC5)CC4)cc3Oc3cnc4[nH]ccc4c3)cc2[N+](=O)[O-])CC1=O` (stereo not drawn) [Compound 202, 4-(4-{[2-(4-chlorophenyl)-4,4-dimethylcyclohex-1-en-1-yl]methyl}piperazin-1-yl)-N-({4-[(1-methyl-5-oxopyrrolidin-3-yl)amino]-3-nitrophenyl}sulfonyl)-2-(1H-pyrrolo[2,3-b]pyridin-5-yloxy)benzamide], the inhibition constant (Ki) is below 10 pM.

`CC1(C)CCC(CN2CCN(c3ccc(C(=O)NS(=O)(=O)c4ccc(NCCC#N)c([N+](=O)[O-])c4)c(Oc4cnc5[nH]ccc5c4)c3)CC2)=C(c2ccc(Cl)cc2)C1` [Compound 62, 4-(4-{[2-(4-chlorophenyl)-4,4-dimethylcyclohex-1-en-1-yl]methyl}piperazin-1-yl)-N-({4-[(2-cyanoethyl)amino]-3-nitrophenyl}sulfonyl)-2-(1H-pyrrolo[2,3-b]pyridin-5-yloxy)benzamide] showed a Ki below 10 pM.

For the molecule `O=C(NS(=O)(=O)c1ccc(NCC2CCOCC2)c([N+](=O)[O-])c1)c1ccc(N2CCN(CC3=C(c4ccc(Cl)cc4)CC4(CC3)CC4)CC2)cc1Oc1cnc2[nH]ccc2c1` [Compound 328, 4-(4-{[5-(4-chlorophenyl)spiro[2.5]oct-5-en-6-yl]methyl}piperazin-1-yl)-N-({3-nitro-4-[(tetrahydro-2H-pyran-4-ylmethyl)amino]phenyl}sulfonyl)-2-(1H-pyrrolo[2,3-b]pyridin-5-yloxy)benzamide], the Ki was below 10 pM.

`CC1(C)CCC(CN2CCN(c3ccc(C(=O)NS(=O)(=O)c4ccc(NC5CCN(S(C)(=O)=O)CC5)c([N+](=O)[O-])c4)c(Oc4cnc5[nH]ccc5c4)c3)CC2)=C(c2ccc(Cl)cc2)C1` [Compound 80, 4-(4-{[2-(4-chlorophenyl)-4,4-dimethylcyclohex-1-en-1-yl]methyl}piperazin-1-yl)-N-[(4-{[1-(methylsulfonyl)piperidin-4-yl]amino}-3-nitrophenyl)sulfonyl]-2-(1H-pyrrolo[2,3-b]pyridin-5-yloxy)benzamide] gave an inhibitory constant (Ki) below 10 pM.

`O=C(NS(=O)(=O)c1ccc(NCC2CCOCC2)c([N+](=O)[O-])c1)c1ccc(N2CCN(CC3=C(c4ccc(Cl)cc4)CCC4(CCN(C(CF)CF)CC4)C3)CC2)cc1Oc1cnc2[nH]ccc2c1` [Compound 265, 4-(4-{[9-(4-chlorophenyl)-3-(1,3-difluoropropan-2-yl)-3-azaspiro[5.5]undec-8-en-8-yl]methyl}piperazin-1-yl)-N-({3-nitro-4-[(tetrahydro-2H-pyran-4-ylmethyl)amino]phenyl}sulfonyl)-2-(1H-pyrrolo[2,3-b]pyridin-5-yloxy)benzamide] registered a Ki below 10 pM.

For the molecule `CC1(C)CCC(CN2CCN(c3ccc(C(=O)NS(=O)(=O)c4ccc(NC5CCC(N(CCC#N)C6CC6)CC5)c([N+](=O)[O-])c4)c(Oc4cnc5[nH]ccc5c4)c3)CC2)=C(c2ccc(Cl)cc2)C1` (stereo not drawn) [Compound 340, 4-(4-{[2-(4-chlorophenyl)-4,4-dimethylcyclohex-1-en-1-yl]methyl}piperazin-1-yl)-N-{[4-({4-[(2-cyanoethyl)(cyclopropyl)amino]cyclohexyl}amino)-3-nitrophenyl]sulfonyl}-2-(1H-pyrrolo[2,3-b]pyridin-5-yloxy)benzamide], the Ki was below 10 pM.

In turn, `CC1(C)CCC(CN2CCN(c3ccc(C(=O)NS(=O)(=O)c4cnc(NC[C@H]5CC[C@@](C)(O)CC5)c([N+](=O)[O-])c4)c(Oc4cnc5[nH]ccc5c4)c3)CC2)=C(c2ccc(Cl)cc2)C1` [Compound 371, 4-(4-{[2-(4-chlorophenyl)-4,4-dimethylcyclohex-1-en-1-yl]methyl}piperazin-1-yl)-N-[(6-{[(trans-4-hydroxy-4-methylcyclohexyl)methyl]amino}-5-nitropyridin-3-yl)sulfonyl]-2-(1H-pyrrolo[2,3-b]pyridin-5-yloxy)benzamide] returned a Ki below 1 pM.

`CN(C)CC(=O)N1CCO[C@H](CNc2ccc(S(=O)(=O)NC(=O)c3ccc(N4CCN(CC5=C(c6ccc(Cl)cc6)CC(C)(C)CC5)CC4)cc3Oc3cnc4[nH]ccc4c3)cc2[N+](=O)[O-])C1` [Compound 258, 4-(4-{[2-(4-chlorophenyl)-4,4-dimethylcyclohex-1-en-1-yl]methyl}piperazin-1-yl)-N-{[4-({[(2R)-4-(N,N-dimethylglycyl)morpholin-2-yl]methyl}amino)-3-nitrophenyl]sulfonyl}-2-(1H-pyrrolo[2,3-b]pyridin-5-yloxy)benzamide] came in with an inhibition constant Ki below 10 pM.

`CC1(C)CC(c2ccc(Cl)cc2)=C(CN2CCN(c3ccc(C(=O)NS(=O)(=O)c4ccc(NCC5COCCO5)c([N+](=O)[O-])c4)c(Oc4cnc5[nH]ccc5c4)c3)CC2)CO1` (stereo not drawn) [Compound 31, 4-(4-{[4-(4-chlorophenyl)-6,6-dimethyl-5,6-dihydro-2H-pyran-3-yl]methyl}piperazin-1-yl)-N-({4-[(1,4-dioxan-2-ylmethyl)amino]-3-nitrophenyl}sulfonyl)-2-(1H-pyrrolo[2,3-b]pyridin-5-yloxy)benzamide]: the Ki was below 10 pM.

Molecule `CC1(C)CCC(c2ccc(Cl)cc2)=C(CN2CCN(c3ccc(C(=O)NS(=O)(=O)c4ccc(OCC5(F)CCOCC5)c([N+](=O)[O-])c4)c(Oc4cnc5[nH]ccc5c4)c3)CC2)C1` [Compound 119, 4-(4-{[2-(4-chlorophenyl)-5,5-dimethylcyclohex-1-en-1-yl]methyl}piperazin-1-yl)-N-({4-[(4-fluorotetrahydro-2H-pyran-4-yl)methoxy]-3-nitrophenyl}sulfonyl)-2-(1H-pyrrolo[2,3-b]pyridin-5-yloxy)benzamide] displayed an inhibition constant (Ki) below 10 pM.

`CN(C)CC(=O)N1CCO[C@@H](CNc2ccc(S(=O)(=O)NC(=O)c3ccc(N4CCN(CC5=C(c6ccc(Cl)cc6)CC(C)(C)CC5)CC4)cc3Oc3cnc4[nH]ccc4c3)cc2[N+](=O)[O-])C1` [Compound 259, 4-(4-{[2-(4-chlorophenyl)-4,4-dimethylcyclohex-1-en-1-yl]methyl}piperazin-1-yl)-N-{[4-({[(2S)-4-(N,N-dimethylglycyl)morpholin-2-yl]methyl}amino)-3-nitrophenyl]sulfonyl}-2-(1H-pyrrolo[2,3-b]pyridin-5-yloxy)benzamide] returned a Ki below 10 pM.
